The nature of one data set: Solubility in water. It counts as physicochemical. The text has this:
Tabelle 1 zeigt die Wasserlöslichkeit der erfindungsgemäßen Verbindung PMD-S (para-Menthane-3,8-diol Succinat) im Vergleich zu üblichen in Insektenschutzmitteln eingesetzten Wirkstoffen. Tabelle 1

The next data set deals with HeLa-Zellen. Kind of data set: cells. It counts as cell-based. Particulars: Homo sapiens, concentration at which 50 % of the cells die, relative to untreated control cells. An excerpt:
(§1) Hierzu wurden Zytotoxizitätsstudien an HeLa-Zellen und an Keratinozyten (SK-Mel-28) durchgeführt. Erstere Tests gelten als gute Alternative zu in vivo Draize Augenreizungstests, während letztere ein gutes Modell für die Hautkompatibilität sind.

The test system of data set [1] is Keratinozyten (SK-Mel-28). Nature of the data set: cells. Format: cell-based. The conditions noted are these: Homo sapiens, SK-MEL-28, SK-Mel-28; concentration at which 50 % of the cells die, relative to untreated control cells; read-out: Keratinocyten Zellen IC50.
Text: as §1

Read-outs that look alike come from different tables or passages of the source.

As a reminder, the IC50 is the point on the concentration scale where inhibition reaches its midpoint.

Take `CCCCN(CCC(=O)OCC)C(C)=O` [IR 3535, Ethyl-3-[(acetyl)(butyl)amino]propanoat]: the “Löslichkeit in Wasser” value in “Solubility in water” worked out at 70 g/L bei 20 °C. Further, the 50% inhibitory concentration (IC50) in the data set with HeLa-Zellen stood at 12.5 ± 1.17 µM; in data set [1], 17.5 ± 2.76 µM.
Consider `CC[C@@H](C)OC(=O)N1CCCC[C@@H]1CCO` (racemic) [KBR 3023, (RS)-sec-butyl-(RS)-2-(2hydroxyethyl) piperidine-1-carboxylat], for which the “Löslichkeit in Wasser” value in the data set “Solubility in water” (bei 20°C) was determined as 8.2 g/L bei 20 °C.
In the case of `CC1CCC(C(C)(C)O)C(O)C1` (stereo not drawn) [PMD, para-Menthan-3,8-diol], the “Löslichkeit in Wasser” value in “Solubility in water” (bei 25°C) amounted to 0.29 g/L bei 25 °C. The 50% inhibitory concentration (IC50) in data set [1] was 14.2 ± 5.23 µM.
Regarding `CCN(CC)C(=O)c1cccc(C)c1` [DEET, N,N-Diethyl-m-methylbenzamid], the “Löslichkeit in Wasser” value in the data set “Solubility in water” was determined as 1 g/L bei 25 °C. In addition, the figures for the half-maximal inhibitory concentration (IC50) (with HeLa-Zellen; in data set [1]) were 12.4 ± 1.89 µM and 8.1 ± 3.41 µM, respectively.

Source of the values: patent EP2439188B1, “p-Menthane-3,8-diol derivatives and insect repellents comprising them” (priority 2010, dated 2012).
